# Tested on: immunoglobulin light chain protein WIL-FL T46L
# Assay: Differential scanning fluorimetry (thermal shift) assay
# Type: binding
# Details: Table A; temperature shift [Tm]compound-[Tm]vehicle; recombinant WIL-FL T46L
row,Compound,DSF
1,Cc1cc(N2CC[C@](C)(c3ccccc3)C2)cn2nc(C(=O)N3CC4CN(c5cccc(C(=O)O)n5)CC4(C(N)=O)C3)nc12 (some centres unmarked) [Compound 255],***** (>2.5° C.=*****)
2,CNC(=O)c1nc2c(C)cc(N3CC[C@@](c4ccccc4)(C(F)F)C3)cn2n1 [Compound 329],***** (>2.5° C.=*****)
3,Cc1cc(N2CC[C@](C)(c3ccccc3)C2)cn2nc(C(=O)N3CC4CN(c5cccc(C(=O)O)n5)CC(C3)O4)nc12 [Compound 287],***** (>2.5° C.=*****)
4,"Cc1nc(C2C3(C(=O)O)COC2(c2nc4c(C)cc(N5CC[C@](C)(c6ccccc6)C5)cn4n2)C3)n[nH]1 (stereo partly drawn) [Compound 1A, 5-(5-methyl-1H-1,2,4-triazol-3-yl)-1-(8-methyl-6-((R)-3-methyl-3-phenylpyrrolidin-1-yl)-[1,2,4]triazolo[1,5-a]pyridin-2-yl)-2-oxabicyclo[2.1.1]hexane-4-carboxylic acid]",***** (>2.5° C.=*****)
5,CCC1(c2ccccc2)CN(c2cc(CO)c3nc(C(=O)NC)nn3c2)C1 [Compound 391],***** (>2.5° C.=*****)
6,COC1CNCC1NC(=O)c1nc2c(C)cc(N3CC[C@](C)(c4ccccc4)C3)cn2n1 (some centres unmarked) [Compound 166],***** (>2.5° C.=*****)
7,Cc1cc(N2CC[C@](C)(c3ccccc3)C2)cn2nc(C(=O)NC3(C)CCNC3)nc12 (some centres unmarked) [Compound 189],***** (>2.5° C.=*****)
8,Cc1cc(N2CC[C@](C)(c3ccccc3)C2)cn2nc(C(=O)N3CC[C@]4(CCN(c5cc(C(=O)O)ccn5)C4)C3)nc12 [Compound 270],***** (>2.5° C.=*****)
9,Cc1cc(N2CC[C@](C)(c3ccccc3)C2)cn2nc(C(=O)N3CCOC4(CNC4)C3)nc12 [Compound 177],***** (>2.5° C.=*****)
10,Cc1cc(N2CC[C@](C)(c3ccccc3)C2)cn2nc(C(=O)N3CCCC4(CC(N5CC6C(C5)C6C(=O)O)CO4)C3)nc12 (some centres unmarked) [Compound 355],***** (>2.5° C.=*****)
11,Cc1ncn(CC23CC(C(=O)O)(C2)C(c2nc4c(C)cc(N5CC[C@](C)(c6ccccc6)C5)cn4n2)O3)n1 (some centres unmarked) [Compound 94],***** (>2.5° C.=*****)
12,Cc1cc(N2CC[C@](C)(c3ccccc3)C2)cn2nc(C(=O)NCC3(O)COC3)nc12 [Compound 106],***** (>2.5° C.=*****)
13,"CC(=O)Nc1n[nH]c(C2C3COC2(c2nc4c(C)cc(N5CC[C@](C)(c6ccccc6)C5)cn4n2)C3)n1 (stereo partly drawn) [Compound 10, N-[5-[1-[8-methyl-6-[(3R)-3-methyl-3-phenyl-pyrrolidin-1-yl]-[1,2,4]triazolo[1,5-a]pyridine-2-yl]-2-oxabicyclo[2.1.1]hexan-5-yl]-1H-1,2,4-triazol-3-yl]acetamide]",***** (>2.5° C.=*****)
14,Cc1cc(N2CC[C@](C)(c3ccccc3)C2)cn2nc(C(=O)N3CCCC(C(=O)O)C3)nc12 (some centres unmarked) [Compound 197],***** (>2.5° C.=*****)
15,"Cc1cc(N2CCC(C)(c3ccccn3)C2)cn2nc(C(=O)NC3CCN(c4cccc(C(=O)O)n4)CC3)nc12 (centres unmarked) [Compound 34, 6-[4-[[8-methyl-6-[3-methyl-3-(2-pyridyl)pyrrolidin-1-yl]-[1,2,4]triazolo[1,5-a]pyridine-2-carbonyl]amino]-1-piperidyl]pyridine-2-carboxylic acid]",**** (>1.5-2.5° C.=****)
16,Cc1cc(N2CC[C@](C)(c3ccc(Cl)cc3)C2)cn2nc(C(=O)N3C[C@@H]4CN(c5cccc(C(=O)O)n5)C[C@@H]4C3)nc12 [Compound 420],***** (>2.5° C.=*****)
17,Cc1cc(N2CC[C@](C)(c3ccccc3)C2)cn2nc(C(=O)N3CC4(CCN4C(=O)c4cccc(C(=O)O)n4)C3)nc12 [Compound 215],***** (>2.5° C.=*****)
18,Cc1cc(N2CC[C@](C)(c3ccccc3)C2)cn2nc(C34CC(CO3)C4N3CC4(CC4)NC3=O)nc12 (some centres unmarked) [Compound 78],***** (>2.5° C.=*****)
19,Cc1cc(N2CC(C)(c3ccccc3)CC2=O)cn2nc(C(=O)N3CC[C@@]4(CCN(c5cccc(C(=O)O)n5)C4)C3)nc12 (some centres unmarked) [Compound 387],** (>0.5-1 °C =**)
20,Cc1cc(OC[C@H](C)c2cccc(F)c2)cn2nc(C(=O)N3CC[C@@](C)(O)C3)nc12 [Compound 309],**** (>1.5-2.5° C.=****)

# Same assay, conditions: Table B; temperature shift [Tm]compound-[Tm]vehicle; recombinant WIL-FL T46L
row,Compound,DSF
1,"Cc1cc(N2CC[C@](C)(c3ccccc3)C2)cn2nc(C(=O)NC3CC4(C3)CN(C(=O)C3CCC(C(=O)O)O3)C4)nc12 (stereo partly drawn) [Compound 596, 5-[6-[[8-methyl-6-[(3R)-3-methyl-3-phenyl-pyrrolidin-1-yl]-[1,2,4]triazolo[1,5-a]pyridine-2-carbonyl]amino]-2-azaspiro[3.3]heptane-2-carbonyl]tetrahydrofuran-2-carboxylic acid]",***** (>2.5° C.=*****)
2,Cc1cc(N2CC[C@](C)(c3ccccc3)C2)cn2nc(C(=O)N3C[C@@H]4[C@@H](C(=O)O)CO[C@@H]4C3)nc12 [Compound 595],***** (>2.5° C.=*****)
3,"Cc1cc(N2CC[C@](C)(c3ccccc3)C2)cn2nc(C(=O)N3CCC4(CCN(c5cnnc(C(=O)O)c5)C4)C3)nc12 (stereo partly drawn) [Compound 730, 5-(7-(8-methyl-6-((R)-3-methyl-3-phenylpyrrolidin-1-yl)-[1,2,4]triazolo[1,5-a]pyridine-2-carbonyl)-2,7-diazaspiro[4.4]nonan-2-yl)pyridazine-3-carboxylic acid]",***** (>2.5° C.=*****)
4,"Cc1n[nH]c([C@@H]2[C@@H]3CO[C@@]2(c2nc4c(C)cc(N5CC[C@](C)(c6ccccc6)C5)cn4n2)C3)n1 [Compound 492, 8-methyl-6-[(3R)-3-methyl-3-phenyl-pyrrolidin-1-yl]-2-[(1S,4R,5S)-5-(3-methyl-1H-1,2,4-triazol-5-yl)-2-oxabicyclo[2.1.1]hexan-1-yl]-[1,2,4]triazolo[1,5-a]pyridine]",***** (>2.5° C.=*****)
5,"Cc1cc(N2CC[C@](C)(c3ccccc3)C2)cn2nc(C34CC(N5CCC(C(=O)O)CC5=O)(CO3)C4)nc12 (stereo partly drawn) [Compound 469, 1-(1-(8-methyl-6-((R)-3-methyl-3-phenylpyrrolidin-1-yl)-[1,2,4]triazolo[1,5-a]pyridin-2-yl)-2-oxabicyclo[2.1.1]hexan-4-yl)-2-oxopiperidine-4-carboxylic acid]",***** (>2.5° C.=*****)
6,Cc1cc(N2CC[C@](C)(c3ccccc3)C2)cn2nc(C(=O)N3CCC4(CCCC(C(=O)O)C4)C3)nc12 (some centres unmarked) [Compound 606],***** (>2.5° C.=*****)
7,"Cc1cc(N2CC[C@](C)(c3ccccc3)C2)cn2nc(C34CC(CO3)C4NCC3(N)COC3)nc12 (stereo partly drawn) [Compound 510, N-[(3-aminooxetan-3-yl)methyl]-1-[8-methyl-6-[(3R)-3-methyl-3-phenyl-pyrrolidin-1-yl]-[1,2,4]triazolo[1,5-a]pyridin-2-yl]-2-oxabicyclo[2.1.1]hexan-5-amine]",***** (>2.5° C.=*****)
8,Cc1cc(N2CC[C@](C)(c3ccccc3)C2)cn2nc(C34CC(CO3)C4N3C[C@]4(CC[C@H](C(=O)O)CC4)NC3=O)nc12 (some centres unmarked) [Compound 525],***** (>2.5° C.=*****)
9,Cc1cc(N2CC[C@](C)(c3ccc(F)c(Cl)c3)C2)cn2nc(C(=O)N3CC[C@@]4(CCN(c5cccc(C(=O)O)n5)C4)C3)nc12 [Compound 748],***** (>2.5° C.=*****)
10,Cc1ccc(C(=O)O)nc1N1CCC2(CCN(C(=O)c3nc4c(C)cc(N5CC[C@](C)(c6ccccc6)C5)cn4n3)C2)C1 (some centres unmarked) [Compound 692],***** (>2.5° C.=*****)
11,"Cc1cc(N2CC[C@](C)(c3ccccc3)C2)cn2nc(C(=O)N3CCC4(CC(=O)N(c5cccc(C(=O)O)n5)C4)C3)nc12 (stereo partly drawn) [Compound 671, 6-[7-[8-methyl-6-[(3R)-3-methyl-3-phenyl-pyrrolidin-1-yl]-[1,2,4]triazolo[1,5-a]pyridine-2-carbonyl]-3-oxo-2,7-diazaspiro[4.4]nonan-2-yl]pyridine-2-carboxylic acid]",***** (>2.5° C.=*****)
12,"Cc1cc(N2CC[C@](C)(c3ccccc3)C2)cn2nc(C34CC(C(=O)NC(C)(C)C(=O)O)(CO3)C4)nc12 [Compound 440, (R)-2-methyl-2-(1-(8-methyl-6-(3-methyl-3-phenylpyrrolidin-1-yl)-[1,2,4]triazolo[1,5-a]pyridin-2-yl)-2-oxabicyclo[2.1.1]hexane-4-carboxamido)propanoic acid]",***** (>2.5° C.=*****)
13,"Cc1cc(N2CC[C@](C)(c3ccccc3)C2)cn2nc(C(=O)NC3C4CCN(c5cccc(C(=O)O)n5)CC43)nc12 (stereo partly drawn) [Compound 685, 6-(7-(8-methyl-6-((R)-3-methyl-3-phenylpyrrolidin-1-yl)-[1,2,4]triazolo[1,5-a]pyridine-2-carboxamido)-3-azabicyclo[4.1.0]heptan-3-yl)picolinic acid]",***** (>2.5° C.=*****)
14,Cc1cc(N2CC[C@](C)(c3ccccc3)C2)cn2nc(C34CC(CO3)C4N3CC4(CNC4)NC3=O)nc12 (some centres unmarked) [Compound 515],***** (>2.5° C.=*****)
15,Cc1cc(N2CC[C@](C)(c3ccccc3)C2)cn2nc(C34CC(CO3)C4COC3CC4(CNC4)C3)nc12 (some centres unmarked) [Compound 501],***** (>2.5° C.=*****)
16,Cc1cc(N2CC[C@](C)(c3ccccc3)C2)cn2nc(C34CC(CNc5cccc(C(=O)O)n5)(CO3)C4)nc12 [Compound 461],***** (>2.5° C.=*****)
17,Cc1cc(N2CC[C@](C)(c3ccccc3)C2)cn2nc(C(=O)N3CC[C@@]4(CCN(C(=O)C5COC(C(=O)O)C5)C4)C3)nc12 (some centres unmarked) [Compound 672],***** (>2.5° C.=*****)
18,"Cc1cc(N2CC[C@](C)(c3ccccc3)C2)cn2nc(C34CC(CN)(CO3)C4CO)nc12 (stereo partly drawn) [Compound 582, (4-(aminomethyl)-1-(8-methyl-6-((R)-3-methyl-3-phenylpyrrolidin-1-yl)-[1,2,4]triazolo[1,5-a]pyridin-2-yl)-2-oxabicyclo[2.1.1]hexan-5-yl)methanol]",***** (>2.5° C.=*****)
19,Cc1cc(N2CC[C@](C)(c3ccccc3)C2)cn2nc(C(=O)N3CC[C@@]4(CCN(c5cc(C(=O)O)ccn5)C4)C3)nc12 [Compound 714],***** (>2.5° C.=*****)
20,Cc1cc(N2CC[C@](C)(c3ccccc3)C2)cn2nc(C(=O)N3CC[C@@H]4NC(=O)C[C@@H]43)nc12 [Compound 762],***** (>2.5° C.=*****)
21,Cc1cc(N2CC[C@](C)(c3ccccc3)C2)cn2nc([C@@]34C[C@@H](CO3)[C@H]4N3CC4(CC4)NC3=O)nc12 [Compound 524],***** (>2.5° C.=*****)
